Reference: US9458161B1, “TSPO ligands for cancer imaging and treatment” (Vanderbilt University, priority 2011, dated 2016)
Read-outs that look alike come from different tables or passages of the source.

What was measured:
[1] = target: T1, TSPO (Homo sapiens, UniProt P30536); conditions: cited from earlier work
[2] = target: T1, TSPO; parameters: host or cells: glioma patients (Junck et al; Pappata et al.); conditions: cited from earlier work
[3] = HPLC radiometabolite analysis of plasma after [18F]DPA-714; type: in vivo, rat; conditions: mean ± SD
Protocol: Briefly, arterial blood (200 μL) was collected at 2, 12, 30, 60, and 90 min. Following centrifugation, plasma was extracted with acetonitrile:water (340 μL, 7:1, v/v). The mixture was centrifuged and the supernatant used for reversed phase HPLC analysis using 0.1 M aqueous ammonium acetate (NH4)OAc (pH 10) and acetonitrile (30:70; v/v) at 1 mL/min on a C18 Dynamax 250×4.6 mm (Varian) column. Radiochromatographic data were recorded and collected using a radioisotope detector (Bioscan), decay-corrected to time zero of each radiochromatogram, and smoothed using a locally weighted scatter plot smoothing method. The plasma time-activity curve was corrected according to the fraction of unchanged radioligand.

[4] = HPLC radiometabolite analysis of plasma after [18F]PBR06; type: in vivo, rat
Protocol: Blood samples (200 μL) were collected (2, 25, 45 min) for radiometabolite analysis. Following centrifugation, plasma was extracted with acetonitrile:water (340 μL, 7.5:1, v/v). The mixture was centrifuged and the supernatant used for HPLC analysis. Radioanalysis was conducted as is known in the art. Radiochromatographic data were recorded and collected using a radioisotope detector (Bioscan, Washington, D.C., USA), decay-corrected to time zero of each radiochromatogram, and smoothed using a locally weighted scatter plot smoothing (LOWESS) method. The plasma time-activity curve (TAC) was corrected with the fraction of unchanged radioligand.
Arterial blood samples were collected to assay [^18F]PBR06 radiometabolites for correction of the AIF. FIG. 12 illustrates a typical activity corrected reversed-phase HPLC trace of a blood sample collected two minutes following injection of [^18F]PBR06. At this time point we noted the presence of both ^18F^− (retention time 2.8 min) and the parent ligand (10.1 min) in a respective ratio of ˜1:3.

[5] = target: TSPO (Rattus norvegicus, UniProt P16257); conditions: for K1/k2: 3-compartment, 4-parameter model; for K1/k2 / k3 / VT: mean ± S.E.; for K1/k2 / k3: N=3; for VT: N=4
Protocol: In this Example Glioma-bearing rats were imaged with [^18F]PBR06 in a microPET system. Dynamic acquisitions were acquired simultaneously upon injection of 70-100 MBq/0.2 mL [^18F]PBR06. Over the course of scanning, arterial blood was collected to derive the input function, with HPLC radiometabolite analysis performed on selected samples for arterial input function correction. Compartmental modeling of the PET data was performed using the corrected arterial input function. Specific tumor cell binding of PBR06 was evaluated by radioligand displacement of [^3H]PK 11195 with PBR06 in vitro and by displacement of [^18F]PBR06 with excess PBR06 in vivo. Immediately following imaging, tumor tissue and adjacent healthy brain were harvested for assay of TSPO protein levels by western blotting and immunohistochemistry.
PET/CT imaging was performed within 24 h of MR imaging in rats with confirmed tumors. Tumor-bearing rats were administered ˜70-100 MBq/0.2 mL [^18F]PBR06 via a jugular catheter while in a microPET Focus 220 (Siemens Preclinical Solutions, Knoxville, Tenn., USA). Dynamic images (90 min) were collected, followed by CT (microCAT II, Siemens Preclinical Solutions) for attenuation correction. For displacement studies, cold PBR06 (10 mg/kg) was injected via jugular catheter 30 min after radiotracer administration.
The dynamic PET acquisition was divided into twelve, five-second frames for the first minute, followed by 89 sixty-second frames for the duration of the scan. Data from all possible lines of response (LOR) were saved in the list mode raw data format. The raw data was then binned into 3D sinograms with a span of 3 and ring difference of 47. The images were reconstructed into transaxial slices (128×128×95) with voxel sizes of 0.095×0.095×0.08 cm^3, after applying scatter and attenuation corrections, using an iterative ordered subsets expectation maximization (OS-EM 2D) algorithm with 16 subsets and 4 iterations. Attenuation correction was accomplished by generating an attenuation map (sinogram) from the CT image. The CT image was first co-registered with the microPET image, segmented into air, soft tissue, and bone, and then projected into sinograms with a span of 47 and ring difference of 23.
Immediately following administration of [^18F]PBR06, arterial blood samples (50 μL) were collected at 10 s intervals during the first minute of scanning, followed by collection at 90 s and 2, 8, 12, 20, 30, 45, 60, 75, and 90 min. Plasma radioactivity was measured by first centrifuging blood samples (50 μL) at 14,000 rpm for 5 min in a microcentrifuge. Next, plasma (15 μL) was removed and measured in a NaI well counter (Capintec, Ramsey, N.J., USA).
Time-activity curves (TACs) were generated by manually segmenting three-dimensional volumes of interest over tumor and contralateral brain using ASIPro (Siemens Preclinical Solutions), avoiding areas of central necrosis if present. The arterial input function (AIF) was computed from plasma sampling during imaging and corrected for metabolism of the parent ligand. A 3-compartment, 4-rate constant kinetic model was used to characterize [^18F]PBR06 pharmacokinetics as previously described. Using the COMKAT software package, model parameters were estimated for constants for influx (K1) and efflux (k2) rates of radioligand diffusion between plasma and tissue compartments, and exchange between specific (k3) and non-specific binding (k4) compartments. Modeling was carried out for whole brain (excluding tumor) and tumor, individually, by fitting TACs of each region.
To evaluate the in vivo TSPO specificity of [^18F]PBR06, we carried out displacement studies in C6-bearing rats using the cold analog, PBR06.

[6] = at 45 minutes, after infusion of PBR06 at 30 minutes

T1 sequence (P30536 whole entry): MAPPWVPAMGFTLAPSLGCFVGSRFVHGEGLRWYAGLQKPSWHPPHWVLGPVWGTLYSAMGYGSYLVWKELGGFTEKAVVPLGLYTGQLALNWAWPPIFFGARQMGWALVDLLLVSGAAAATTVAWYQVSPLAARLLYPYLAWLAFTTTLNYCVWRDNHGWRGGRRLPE

Q: For `CCC(C)N(C)C(=O)c1cc2ccccc2c(-c2ccccc2Cl)n1` (stereo not shown) [PK 11195], which “in vitro affinity (in words)” value [1] is on record?
A: Its value is “in vitro affinity in the low nanomolar range”.

Q: Which “in vitro affinity (in words)” value [1] does the source give for `CN1C(=O)CN=C(c2ccc(Cl)cc2)c2cc(Cl)ccc21` [Ro5-4864] here?
A: Its value is “in vitro affinity in the low nanomolar range”.

Q: With `CC[C@@H](C)N([11CH3])C(=O)c1cc2ccccc2c(-c2ccccc2Cl)n1` [[^11C]PK 11195] as the compound, how does the “displaceable fraction of tracer with nonradioactive ligand” value ([2]; glioma patient (Pappata et al.)) read?
A: Its value is “less than 30%”.

Q: And the “patients with significantly elevated uptake in gliomas vs contralateral normal brain” value ([2]; human gliomas (Junck et al.))?
A: Its value is 8/10.

Q: And the tumor/gray matter ratio ([2]; human gliomas, in 3/10 patients (Junck et al.))?
A: The tumor/gray matter ratio was ~2.

Q: For `[11CH3]N1C(=O)CN=C(c2ccc(Cl)cc2)c2cc(Cl)ccc21` [[^11C]Ro5-4864], which “radioactivity in tumor tissue vs normal brain (in words)” value ([2]; human gliomas, PET (Junck et al.)) is on record?
A: Its value is “failed to demonstrate higher levels of radioactivity in tumor tissue than in normal brain”.

Q: Which results are given for `CCN(CC)C(=O)Cc1c(-c2ccc(OCC[18F])cc2)nn2c(C)cc(C)nc12` [[^18F]DPA-714]?
A: % 18F- in plasma ([3]; P.I. time 2 (N=7)): 2 ± 3.3%; % Metabolite (hydrophilic radiometabolite) in plasma ([3]; P.I. time 2 (N=7)): 3 ± 3.7%; % 18F- in plasma ([3]; P.I. time 12 (N=7)): 13 ± 6.7%; % Metabolite (hydrophilic radiometabolite) in plasma ([3]; P.I. time 12 (N=7)): 19 ± 5.8%; % [18F]DPA-714 (parent) in plasma ([3]; P.I. time 12 (N=7)): 68 ± 7.4%; % 18F- in plasma ([3]; P.I. time 30 (N=7)): 37 ± 5.4%; % Metabolite (hydrophilic radiometabolite) in plasma ([3]; P.I. time 30 (N=7)): 19 ± 8.8%; % [18F]DPA-714 (parent) in plasma ([3]; P.I. time 30 (N=7)): 44 ± 8.9%; % 18F- in plasma ([3]; P.I. time 60 (N=7)): 50 ± 15.0%; % Metabolite (hydrophilic radiometabolite) in plasma ([3]; P.I. time 60 (N=7)): 23 ± 7.3%; % [18F]DPA-714 (parent) in plasma ([3]; P.I. time 60 (N=7)): 27 ± 6.2%; % 18F- in plasma ([3]; P.I. time 90 (N=5)): 64 ± 12.1%; % Metabolite (hydrophilic radiometabolite) in plasma ([3]; P.I. time 90 (N=5)): 14 ± 3.8%; % [18F]DPA-714 (parent) in plasma ([3]; P.I. time 90 (N=5)): 22 ± 17.8%

Q: Which “free 18F− in plasma” value ([4]; at 2 minutes after injection) does the source give for `COc1ccc(OC)c(CN(C(=O)C[18F])c2ccccc2Oc2ccccc2)c1` [[^18F]PBR06] here?
A: The value was 25%.

Q: What about the “parent ligand [18F]PBR06 in plasma” value ([4]; at 2 minutes after injection) of the same compound?
A: Its value is 75%.

Q: And the “free 18F− in plasma” value ([4]; at 30 minutes)?
A: The value was 62%.

Q: What about the “parent ligand [18F]PBR06 in plasma” value ([4]; at 30 minutes) of the same compound?
A: Its value is 38%.

Q: And the “18F− in plasma” value [4, 6]?
A: The value was 43%.

Q: What about the “fraction of [18F]PBR06 in plasma” value [4, 6] of the same compound?
A: Its value is 57%.

Q: What about the “tracer distribution tumor vs contralateral brain (in words)” value ([5]; C6 glioma-bearing rats) of the same compound?
A: The value was “preferentially accumulate in tumors with modest uptake in contralateral brain”.

Q: What about the “tumor activity after PBR06 infusion, % of maximum/peak tumor uptake” value ([5]; PBR06 10 mg/kg i.v. 30 min after tracer) of the same compound?
A: The value was “approximately 25%”.

Q: And the K1/k2 ([5]; brain)?
A: The K1/k2 was 6.164 ± 2.049 mL/g.

Q: And the k3 ([5]; brain)?
A: Its k3 is 0.0714 ± 0.0261 min⁻¹.

Q: What about the VT ([5]; brain) of the same compound?
A: Its VT is 13.07 ± 3.901 mL/g.

Q: What about the k4 ([5]; brain, mean, N=3 (S.E. in next line)) of the same compound?
A: The k4 was 0.00945 min⁻¹.

Q: And the “displaceable [18F]PBR06 binding” value ([5]; infusion of PBR06 10 mg/kg 30 min after tracer, tumor)?
A: The value was “approximately 75%”.

Q: And the “total radioactivity in tumor relative to normal brain” value ([5]; last 20 minutes of the PET scan)?
A: Its value is “approximately three- to four-fold higher than normal brain”.

Q: And the K1/k2 ([5]; tumor)?
A: Its K1/k2 is 5.947 ± 1.982 mL/g.

Q: What about the k3 ([5]; tumor) of the same compound?
A: Its k3 is 0.3870 ± 0.1592 min⁻¹.

Q: And the VT ([5]; tumor)?
A: Its VT is 63.90 ± 3.400 mL/g.
